Assays:
ERK = assay: Phosphorylation of ERK in midbrain neurons; type: cell-based, mice; conditions: for effect of the agent on the phosphorylation of ERK by quinpirole: co-treatment with quinpirole, or siRNA knockdown before quinpirole; for effect of the agent on the phosphorylation of ERK by EGF: co-treatment with EGF
[1] = test system: midbrain neurons derived from normal mice and D2R−/− mice; assay: Differentiation of midbrain neurons into dopaminergic neural cells (TH immunostaining: number of TH-positive cells, neurite length, neurite number); type: cell-based; conditions: for effect of the agent on the development of dopaminergic neural cells by EGF+quinpirole: co-treatment with EGF+quinpirole, normal mice and D2R−/− mice; for effect of the agent on the differentiation/development of dopaminergic neural cells by EGF: co-treatment with EGF, or siRNA knockdown before EGF
Protocol: Midbrain neurons derived from normal mice and D2R−/− mice were treated with each of EGF, EGF+haloperidol, EGF+AG1478 and EGF+PD98059, and then stained with TH by an immunostaining technique. Then, the number of TH-positive cells, the length of neurites and the number of neurites in the midbrain neurons were compared between EGF, EGF+haloperidol, EGF+AG1478 and EGF+PD98059 to determine the abilities to induce differentiation into dopaminergic neural cells.
Then, the number of TH-positive cells, the length of neurites and the number of neurites in the midbrain neurons were compared to determine the abilities to induce differentiation into dopaminergic neural cells.

| Molecule | effect of the agent on the phosphorylation of ERK by quinpirole (ERK) | effect of the agent on the development of dopaminergic neural cells by EGF+quinpirole [1] | effect of the agent on the differentiation/development of dopaminergic neural cells by EGF ([1]; midbrain neurons) | effect of the agent on the phosphorylation of ERK by EGF (ERK) | effect of the agent on the development of dopaminergic neural cells by quinpirole ([1]; co-treatment with quinpirole, or siRNA knockdown before quinpirole, midbrain neurons) | phosphorylation of ERK by the agent (ERK; compared to that in the control) [%] | differentiation of dopaminergic neural cells from midbrain neurons ([1]; treated with the agent alone, normal mouse and D2R−/− mouse midbrain neurons, TH immunostaining) |
| --- | --- | --- | --- | --- | --- | --- | --- |
| COc1cc2ncnc(Nc3cccc(Cl)c3)c2cc1OC [AG1478] | inhibited | inhibited to the basal level | completely blocked |  |  |  |  |
| CNC(=O)[C@H](Cc1c[nH]c2ccccc12)NC(=O)[C@H](CC(=O)NO)CC(C)C [GM6001, (2S)—N4-hydroxy-N1-[(1S)-1-(1H-indol-3-ylmethyl)-2-(methylamino)-2-oxoethyl]-2-isobutylsuccinamide] | inhibited to the basal level |  | not inhibited | not influenced | inhibited |  |  |
| COc1cccc(-c2cc(=O)c3ccccc3o2)c1N [PD98059] |  |  | completely blocked |  |  |  |  |
| O=C(CCCN1CCC(O)(c2ccc(Cl)cc2)CC1)c1ccc(F)cc1 [haloperidol] |  | not inhibited | not blocked | not inhibited |  |  |  |
| EGF: epidermal growth factor (NSDSECPLSHDGYCLHDGVCMYIEALDKYACNCVVGYIGERCQYRDLKWWELR; Epidermal growth factor; UniProt P01133 971-1023, looked up) |  |  |  |  |  | 417 | promoted |
